Data set [1] deals with human phosphodiesterase III (PDE III). Description: PDE III inhibition. In kind it is biochemical. The settings on record: more potent than anagrelide.
A short description of data set [2]: pharmacokinetics of anagrelide and its metabolite in patients. The class given is in vivo, human. The note with it: typical exposures, greater than anagrelide.
The subject of data set [3] is human megakaryocytopoiesis. The settings on record: cited from earlier work.
The conditions of data set [4]: human, in vivo; cited from earlier work.
The target in data set [5] is human phosphodiesterase III (PDE III). The settings on record: cited from earlier work.
Data set [6] concerns erythroid or myelomonocytic differentiation. The settings on record: stimulated by erythropoietin or granulocyte-macrophage colony-stimulating factor; cited from earlier work.

Here are results for 3 compounds from patent US20110065714A1, “SUBSTITUTED QUINAZOLINES” (Shire LLC, priority 2008, published 2011).

What is called IC50 is the point on the concentration scale where inhibition reaches its midpoint.

Structures are written as SMILES.

On to `O=C1NC2=Nc3ccc(Cl)c(Cl)c3CN2C1O` (stereo not shown) [3-hydroxyanagrelide], for which the “potency as PDE III inhibitor relative to anagrelide” value in data set [1] is given as “over 40 fold”. Besides, the “exposure in vivo relative to parent drug” value in data set [2] is listed as 2-3 fold. Besides, the “potency in inhibition of megakaryocytopoiesis relative to parent drug” value in data set [3] (compared with anagrelide) is listed as “no more potent than the parent drug”. The typical half-life in data set [4] is 2.5 h.

In the case of `O=C1CN2Cc3c(ccc(Cl)c3Cl)N=C2N1` [Anagrelide, 6,7-dichloro-1,5-dihydroimidazo[2,1-b]-quinazolin-2(3H)-one], the IC50 in data set [3] (in vitro, TPO-induced, read-out: estimated IC50 for inhibition of TPO-induced megakaryocytopoiesis) is approximately 26 nM. The IC50 in data set [5] was approximately 29 nM. The “effect on erythroid or myelomonocytic differentiation” value in data set [6] is on record as “does not affect”. Further, in data set [4], the first pass effect is more than 50% and the typical half-life was 1.5 h.

In the case of `Cc1[nH]c(=O)c(C#N)cc1-c1ccncc1` [milrinone], the IC50 in data set [5] is 170 to 350 nM.
